Drawing on patent US8343961B2, “Substituted heterocyclic compounds” (ArQule, Inc., priority 2009, dated 2013), this text covers inhibition for four compounds.

One test deals with MDA-MB-231. Description: MTS Cellular Assay, MDA-MB-231. Format: cell-based. The settings on record: Homo sapiens, MDA-MB-231, 72 hours. The protocol: (§1) Cells were maintained at 37° C., 5% CO2 in DMEM media supplemented with 1% fetal bovine serum, penicillin/streptomycin and fungizone (Invitrogen). Cells were seeded into 96-well tissue culture plates at 3000 per well and cultured at 37° C. for 18 hours. Test compounds were dissolved and diluted to 300× in DMSO then further diluted 1:40 in DMEM before addition to cells (1:7.5 dilution). Cells were incubated with test compounds for 72 hours followed by incubation with tetrazolium compound (3-(4,5-dimethylthiazol-2-yl)-5-(3-carboxymethoxyphenyl)-2-(4-sulfophenyl)-2H-tetrazolium, inner salt; MTS) and the electron coupling reagent, phenazine methosulfate (PMS) for 4 hours. […] The ability of compounds to inhibit cell growth in this assay is correlated with the reduction of dehydrogenase enzyme activity found in metabolically active cells. The measurement of the absorbance of the formazan was assessed using an ENVISION™ (Perkin Elmer) microplate reader at 492 nm. The calculated IC50 value is the concentration of the test compound that causes a 50% decrease in the absorbance.

The next test has as its system NCI-H1299. The test is described as follows: MTS Cellular Assay, NCI-H1299. The settings on record: Homo sapiens, NCI-H1299, 72 hours. It counts as cell-based. The method, then: as §1
In a further test the target is T1, EphA8 (Homo sapiens, UniProt P29322).
T1 sequence (P29322 28-1005): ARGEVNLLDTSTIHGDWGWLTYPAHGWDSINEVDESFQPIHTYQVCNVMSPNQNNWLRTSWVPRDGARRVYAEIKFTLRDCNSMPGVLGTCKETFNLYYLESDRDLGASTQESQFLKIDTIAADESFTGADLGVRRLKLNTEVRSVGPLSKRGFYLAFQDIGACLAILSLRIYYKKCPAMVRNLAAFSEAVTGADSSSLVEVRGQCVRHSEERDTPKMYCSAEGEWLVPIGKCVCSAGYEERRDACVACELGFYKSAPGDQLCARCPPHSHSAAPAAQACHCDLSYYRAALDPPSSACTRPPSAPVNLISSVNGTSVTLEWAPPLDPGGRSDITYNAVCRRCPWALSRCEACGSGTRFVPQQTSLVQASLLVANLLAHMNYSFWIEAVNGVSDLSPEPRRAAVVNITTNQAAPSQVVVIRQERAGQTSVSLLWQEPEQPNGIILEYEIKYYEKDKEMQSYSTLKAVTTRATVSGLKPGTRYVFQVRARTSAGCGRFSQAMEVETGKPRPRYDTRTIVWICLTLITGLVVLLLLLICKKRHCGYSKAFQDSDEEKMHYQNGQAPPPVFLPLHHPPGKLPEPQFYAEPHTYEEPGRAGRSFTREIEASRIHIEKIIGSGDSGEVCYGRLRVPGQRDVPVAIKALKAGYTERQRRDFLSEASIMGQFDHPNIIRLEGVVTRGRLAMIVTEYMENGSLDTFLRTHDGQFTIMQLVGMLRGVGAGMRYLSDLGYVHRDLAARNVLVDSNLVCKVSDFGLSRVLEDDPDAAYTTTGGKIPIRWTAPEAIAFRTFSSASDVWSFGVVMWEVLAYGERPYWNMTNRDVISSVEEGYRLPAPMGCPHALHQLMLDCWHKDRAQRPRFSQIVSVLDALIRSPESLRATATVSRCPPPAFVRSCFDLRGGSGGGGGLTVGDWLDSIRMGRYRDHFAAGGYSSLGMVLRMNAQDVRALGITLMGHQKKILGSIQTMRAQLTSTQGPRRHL
Description: EphA8 Kinase Activity Assay. The settings on record: read-out: EphA8, % INH, at 30 uM. Format: biochemical. The protocol:
Nunc Maxisorb plates are coated with streptavidin by overnight incubation with 100 μL per well of 1 μg/ml Streptavidin in DPBS. Prior to the start of the experiment, the plates are washed with TBST (3×200 μL) and blocked for at least 1 hour by adding 150 μL of 5% BSA/TBST. The plates are washed with TBST (3×200 μL/well) and left dry immediately before the capture step.
The test articles and control (Staurosporine) are prepared using the following assay buffer @ 3× desired final concentration (50 mM Tris-HCl, 0.02 mg/ml BSA, 10 mM MgCl2, 0.1 mM Na3VO4, 1 mM EGTA, 12.5 μM ATP, 0.01% NP-40, 1 mM DTT in 10% glycerol/water). In a reaction plate are added rapidly 20 μl test article (or control) and 20 μl EphA8 (0.12 ng/μl final concentration). The plate is incubated for 15 minutes. To the reaction plate is added 20 μl of Pyk-2 (0.75 ng/μl final concentration). The plate is incubated at room temperature for one hour. From the reaction plate, 50 μl is transferred to the streptavidin coated plate. The capture plate is incubated at room temperature for 30 minutes, then washed 6× with TBST. To the capture plate is added 100 μL/well of Cell Signaling anti-phospho tyrosine at a dilution of 1:3000 in 2% BSA/TBST. The plate is incubated for one hour at room temperature then washed 6× with TBST. To the capture plate is added 100 μL/well of Alkaline Phosphatase Tagged Goat anti Mouse Antibody at a dilution of 1:4000 in 2% BSA/TBST. The plate is incubated for one hour at room temperature then washed 6× with TBST. The fluorescent readout is initiated by the addition of 100 μl/well of Attophos reagent (6 mg/10 mL). The reading is done on the Perkin Elmer Envision system.

The subject of another test is PC-3. Description: MTS Cellular Assay, PC-3. Format: cell-based. Particulars: Homo sapiens, PC-3, 72 hours. The protocol: as §1
For another test, the system named is PACA-2. Description: MTS Cellular Assay, PACA-2. It counts as cell-based. The settings on record: PACA-2, 72 hours. The method, then: as §1
Another test concerns KATO III. Description: MTS Cellular Assay, KATO III. It counts as cell-based. Particulars: Homo sapiens, 72 hours. The protocol: as §1
The subject of the next test is DLD-1. The test is described as follows: MTS Cellular Assay, DLD-1. It counts as cell-based. Particulars: Homo sapiens, DLD-1, 72 hours. The protocol: as §1

The structures appear in SMILES notation. A value given as a limit tells only on which side of the number the result lay.

Turning to `Nc1nc(N2CCN(CCCc3cccc(Cl)c3)c3ccccc3C2)c2cn[nH]c2n1` [Compound 8, 4-{1-[3-(3-chlorophenyl)propyl]-1,2,3,5-tetrahydro-4H-1,4-benzodiazepin-4-yl}-1H-pyrazolo[3,4-d]pyrimidin-6-amine], the inhibition at 10 µM in the test on MDA-MB-231 is below 50%; in the test on NCI-H1299, 50 to 79%; with PC-3, below 50%; in the test on PACA-2, below 50%; with KATO III, below 50%; with DLD-1, above 79%. The inhibition at 30 µM on EphA8 was below 50%.

With `CC(C)(C)c1ccc(CN2CCN(c3nc(N)nc4[nH]ncc34)Cc3ccccc32)cc1` [Compound 30, 4-[1-(4-tert-butylbenzyl)-1,2,3,5-tetrahydro-4H-1,4-benzodiazepin-4-yl]-1H-pyrazolo[3,4-d]pyrimidin-6-amine], the inhibition at 10 µM was below 50% in the test on MDA-MB-231; 50 to 79% with NCI-H1299; below 50% in the test on PC-3; below 50% in the test on PACA-2; below 50% in the test with KATO III; above 79% in the test with DLD-1. Moreover, on EphA8, the inhibition at 30 µM was below 50%.

Consider `Nc1nc(N2CCN(Cc3ccc(Cl)c(Cl)c3)c3ccccc3C2)c2cn[nH]c2n1` [Compound 43, 4-[1-(3,4-dichlorobenzyl)-1,2,3,5-tetrahydro-4H-1,4-benzodiazepin-4-yl]-1H-pyrazolo[3,4-d]pyrimidin-6-amine], for which the inhibition at 10 µM in the test on MDA-MB-231 is below 50%; with NCI-H1299, 50 to 79%; with PC-3, below 50%; with PACA-2, below 50%; with KATO III, below 50%; in the test on DLD-1, above 79%. For the same compound, the inhibition at 30 µM on EphA8 lay within 50 to 79%.

Turning to `CC(C)(C)c1ccc(CN2CCN(c3nc(N)nc4[nH]cnc34)Cc3ccccc32)cc1` [Compound 29, 6-[1-(4-tert-butylbenzyl)-1,2,3,5-tetrahydro-4H-1,4-benzodiazepin-4-yl]-9H-purin-2-amine], the inhibition at 10 µM in the test on MDA-MB-231, in the test on NCI-H1299, with PC-3, in the test on PACA-2, with KATO III and in the test with DLD-1 was below 50% throughout. The inhibition at 30 µM at EphA8 was in the range of 50 to 79%.
